Earlier results as cited in patent US20090304576A1, “DEVICE FOR DELIVERY OF ANTI-CANCER AGENTS TO TISSUE” (priority 2006, published 2009).

Conditions: diffusion in solid tissue such as brain; estimated

## O=NN(CCCl)C(=O)NCCCl [carmustine]
  maximum effective range from a source: about 5 mm
